In assay [1] the target is Cholinesterase (Homo sapiens, UniProt P06276).
Description: Inhibition of human recombinant BChE
Assay [2] concerns the target Acetylcholinesterase (Homo sapiens, UniProt P22303).
Description: Inhibition of human recombinant AChE
Assay [3] addresses Cholinesterases; ACHE & BCHE (Homo sapiens) (UniProt P06276+P22303). The assay can be described thus: Selectivity ratio of Ki for human recombinant AChE to Ki for human recombinant BChE.

These results are taken from ChEMBL document CHEMBL1141710 (Bioorg Med Chem Lett, 2008).

As usually defined, the Ki is a dissociation constant, usually derived from enzyme kinetics or from competition with a known ligand.

Acetylcholinesterase, sequence (P22303 whole entry): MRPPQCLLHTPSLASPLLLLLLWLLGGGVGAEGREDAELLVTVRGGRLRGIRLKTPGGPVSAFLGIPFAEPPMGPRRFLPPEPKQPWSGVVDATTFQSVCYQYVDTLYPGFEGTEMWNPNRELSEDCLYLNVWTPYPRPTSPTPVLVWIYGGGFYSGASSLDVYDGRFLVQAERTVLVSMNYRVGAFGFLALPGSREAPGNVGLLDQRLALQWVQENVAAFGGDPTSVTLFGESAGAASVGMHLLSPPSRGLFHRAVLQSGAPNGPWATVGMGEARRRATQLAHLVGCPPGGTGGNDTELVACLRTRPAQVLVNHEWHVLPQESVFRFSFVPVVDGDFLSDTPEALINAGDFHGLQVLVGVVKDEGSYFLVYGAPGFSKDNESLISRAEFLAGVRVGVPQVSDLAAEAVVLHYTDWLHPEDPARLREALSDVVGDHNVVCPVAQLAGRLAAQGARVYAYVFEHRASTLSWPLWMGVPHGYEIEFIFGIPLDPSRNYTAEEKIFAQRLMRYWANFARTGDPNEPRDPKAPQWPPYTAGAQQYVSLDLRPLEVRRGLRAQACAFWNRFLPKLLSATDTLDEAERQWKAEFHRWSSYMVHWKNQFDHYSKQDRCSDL
Cholinesterase, sequence (P06276 whole entry): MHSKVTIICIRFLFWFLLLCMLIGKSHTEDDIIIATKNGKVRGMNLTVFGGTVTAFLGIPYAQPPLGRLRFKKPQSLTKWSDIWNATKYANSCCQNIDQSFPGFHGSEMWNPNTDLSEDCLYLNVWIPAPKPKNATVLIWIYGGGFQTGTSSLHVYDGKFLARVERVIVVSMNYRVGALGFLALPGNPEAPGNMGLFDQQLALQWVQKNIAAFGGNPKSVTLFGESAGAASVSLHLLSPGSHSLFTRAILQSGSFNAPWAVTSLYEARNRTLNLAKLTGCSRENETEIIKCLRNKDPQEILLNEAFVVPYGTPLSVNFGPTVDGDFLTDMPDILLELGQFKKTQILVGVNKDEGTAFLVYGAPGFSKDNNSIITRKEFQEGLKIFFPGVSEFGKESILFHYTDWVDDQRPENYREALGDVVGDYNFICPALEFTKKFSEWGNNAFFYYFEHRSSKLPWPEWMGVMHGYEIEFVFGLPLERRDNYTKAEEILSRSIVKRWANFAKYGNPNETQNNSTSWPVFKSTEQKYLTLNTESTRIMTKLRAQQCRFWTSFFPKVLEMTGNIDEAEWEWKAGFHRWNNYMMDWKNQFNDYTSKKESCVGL
Cholinesterases; ACHE & BCHE (Homo sapiens), sequence (P06276 whole entry, looked up): as the sequence (P06276 whole entry) above
Cholinesterases; ACHE & BCHE (Homo sapiens), sequence (P22303 whole entry, looked up): as the sequence (P22303 whole entry) above

With `N[C@@H](Cc1c[nH]c2ccccc12)C(=O)NCC(=O)Nc1c2c(nc3ccccc13)CCCC2`, the values for the inhibition constant Ki in assay [1] and in assay [2] were 251 nM and 2210 nM, respectively.
Regarding `O=C(CNC(=O)[C@@H]1Cc2ccccc2CN1)Nc1c2c(nc3ccccc13)CCCC2`, the Ki worked out at 580 nM in assay [1] and 4130 nM in assay [2].
As to `CC(C)(C)OC(=O)N[C@@H](CCC(=O)NCCNc1c2c(nc3ccccc13)CCCC2)C(=O)NCCNc1c2c(nc3ccccc13)CCCC2`, the figures for the Ki in assay [1] and in assay [2] were 12.6 nM and 15.4 nM, respectively.
Turning to `N[C@@H](Cc1ccc2ccccc2c1)C(=O)NCC(=O)Nc1c2c(nc3ccccc13)CCCC2`, the inhibition constant Ki was 252 nM in assay [1] and 11200 nM in assay [2].
In the case of `N[C@@H](Cc1c[nH]c2ccccc12)C(=O)NCCC(=O)Nc1c2c(nc3ccccc13)CCCC2`, the Ki in assay [1] is 173 nM; in assay [2], 34000 nM. For the same molecule, the Ratio Ki in assay [3] is 197.
On to `O=C(NCCCCCNc1c2c(nc3ccccc13)CCCC2)[C@@H]1CCCN1CCNc1c2c(nc3ccccc13)CCCC2`, for which the Ki in assay [1] stood at 1.77 nM; in assay [2], 6.75 nM.
As to `CC(C)(C)OC(=O)N[C@@H](Cc1c[nH]c2ccccc12)C(=O)NCCNc1c2c(nc3ccccc13)CCCC2`, the figures for the Ki in assay [1] and in assay [2] were 1.87 nM and 130 nM, respectively.
On to `N[C@@H](CCC(=O)NCCNc1c2c(nc3ccccc13)CCCC2)C(=O)NCCNc1c2c(nc3ccccc13)CCCC2`, for which the figures for the inhibitory constant (Ki) in assay [1] and in assay [2] were 25.1 nM and 6.21 nM, respectively.
For the molecule `CN[C@@H](Cc1ccccc1)C(=O)NCC(=O)Nc1c2c(nc3ccccc13)CCCC2`, the figures for the inhibition constant (Ki) in assay [1] and in assay [2] were 1200 nM and 6320 nM, respectively.
Regarding `CN[C@@H](Cc1c[nH]c2ccccc12)C(=O)NCC(=O)Nc1c2c(nc3ccccc13)CCCC2`, the Ki in assay [1] is 1760 nM; in assay [2], 3330 nM.
For the molecule `N[C@@H](Cc1c[nH]c2ccccc12)C(=O)NCCNc1c2c(nc3ccccc13)CCCC2`, the values for the Ki in assay [1] and in assay [2] were 1.33 nM and 280 nM, respectively. Moreover, in assay [3], the Ratio Ki stood at 210.
Turning to `N[C@@H](Cc1ccccc1)C(=O)NCC(=O)Nc1c2c(nc3ccccc13)CCCC2`, the figures for the Ki in assay [1] and in assay [2] were 708 nM and 1910 nM, respectively.
Regarding `CC(C)(C)OC(=O)N[C@@H](Cc1c[nH]c2ccccc12)C(=O)NCCC(=O)Nc1c2c(nc3ccccc13)CCCC2`, the inhibitory constant (Ki) in assay [1] was 443 nM; in assay [2], 7970 nM.
